Test results as given in publication PMC7377239, “Cardiovascular Effects of Polychlorinated Biphenyls and Their Major Metabolites” (Environmental Health Perspectives, 2020).
Where a name gives a salt, the structure may show the parent alone. Read-outs that look alike come from different tables or passages of the source.

Assays:
[1] = test system: iCell endothelial cells (human iPSC-derived ECs); test: High-content imaging cytotoxicity in iCell endothelial cells, 24 h; type: cell-based; details: Homo sapiens, Endothelial cell, iPSC-EC, 24 hr; for viability at 0.1 µM / activity at 0.1 µM: 0.10 µM; for minimal effective concentration: top concentration 100.00 µM
How it was run: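 Human iPSC-derived endothelial cells (passages 1–5) were grown to a fibronectin-coated monolayer, then exposed 24 h at 37 °C with 0.5% DMSO vehicle. Staining was Hoechst 33342, MitoTracker Orange and calcein AM, read by high-content imaging. Point of departure came from 4-parameter logistic fits, with a 1-SD vehicle cutoff and 100 µM as the top concentration.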

HUVECs = test: High-content imaging cytotoxicity in HUVECs, 24 h; type: cell-based, human; details: Homo sapiens, HUVEC, 24 h, HUVECs; for viability at 0.01 µM / activity at 0.01 µM / viability at 0.1 µM / activity at 0.1 µM / viability at 1 µM / activity at 1 µM / viability at 10 µM / activity at 10 µM / viability at 100 µM / activity at 100 µM: 0.00 µM = 100.00; for viability at 0.1 µM / activity at 0.1 µM: 0.10 µM; for minimal effective concentration: top concentration 100.00 µM
How it was run: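 HUVECs (passages 1–5) grown to monolayer over 3–5 d, then exposed 24 h at 37°C, 5% CO2; stained with Hoechst 33342, MitoTracker Orange and calcein AM and imaged at 10×. Readouts normalized to 0.5% DMSO vehicle, four-parameter logistic fit; POD at one-SD cutoff, 100μM assigned when no response.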

[2] = 0.00 µM control = 100.00, read-out: endo.cyto.24hr
[3] = 0.00 µM control = 100.00, read-out: endo.mito.24hr
[4] = 0.00 µM control = 100.00, read-out: endo.mitoint.24hr
[5] = 0.00 µM control = 100.00, read-out: endo.nma.24hr
[6] = 0.00 µM control = 100.00, read-out: endo.tc.24hrs
[7] = 24 hr, read-out: huvec.cyto.24hr
[8] = 24 hr, read-out: huvec.mito.24hr
[9] = 24 hr, read-out: huvec.mitoint.24hr
[10] = 24 hr, read-out: huvec.nma.24hr
[11] = 24 hrs, read-out: huvec.tc.24hrs

O=S(=O)(O)Oc1ccc(-c2cccc(Cl)c2)cc1Cl [4-yl PCB 11 sulfate]
viability at 0.01 µM [1, 2]: 96.1%
activity at 0.01 µM [1, 3]: 96.2%
activity at 0.01 µM [1, 4]: 99.7%
activity at 0.01 µM [1, 5]: 103%
viability at 0.01 µM [1, 6]: 96.1%
viability at 0.1 µM [1, 2]: 102%
activity at 0.1 µM [1, 3]: 101%
activity at 0.1 µM [1, 4]: 90.5%
activity at 0.1 µM [1, 5]: 102%
viability at 0.1 µM [1, 6]: 102%
viability at 1 µM [1, 2]: 98%
activity at 1 µM [1, 3]: 97.8%
activity at 1 µM [1, 4]: 90.8%
activity at 1 µM [1, 5]: 103%
viability at 1 µM [1, 6]: 98%
viability at 10 µM [1, 2]: 104%
activity at 10 µM [1, 3]: 104%
activity at 10 µM [1, 4]: 87.3%
activity at 10 µM [1, 5]: 98.8%
viability at 10 µM [1, 6]: 104%
viability at 100 µM [1, 2]: 98.5%
activity at 100 µM [1, 3]: 98.6%
activity at 100 µM [1, 4]: 84.2%
activity at 100 µM [1, 5]: 99.3%
viability at 100 µM [1, 6]: 98.5%
minimal effective concentration ([1]; read-out: endo.cyto.24hr POD): 100 µM
minimal effective concentration ([1]; read-out: endo.mito.24hr POD): 100 µM
minimal effective concentration ([1]; read-out: endo.mitoint.24hr POD): 100 µM
minimal effective concentration ([1]; read-out: endo.nma.24hr POD): 100 µM
minimal effective concentration ([1]; read-out: endo.tc.24hrs POD): 100 µM
viability at 0.01 µM (HUVECs; [7]): 97.3%
activity at 0.01 µM (HUVECs; [8]): 95.5%
activity at 0.01 µM (HUVECs; [9]): 95.8%
activity at 0.01 µM (HUVECs; [10]): 97.3%
viability at 0.1 µM (HUVECs; [7]): 86.8%
activity at 0.1 µM (HUVECs; [8]): 85.9%
activity at 0.1 µM (HUVECs; [9]): 118%
activity at 0.1 µM (HUVECs; [10]): 104%
viability at 1 µM (HUVECs; [7]): 97.8%
activity at 1 µM (HUVECs; [8]): 96.6%
activity at 1 µM (HUVECs; [9]): 99.3%
activity at 1 µM (HUVECs; [10]): 97%
viability at 10 µM (HUVECs; [7]): 108%
activity at 10 µM (HUVECs; [8]): 107%
activity at 10 µM (HUVECs; [9]): 93.5%
activity at 10 µM (HUVECs; [10]): 93.9%
viability at 100 µM (HUVECs; [7]): 58.3%
activity at 100 µM (HUVECs; [8]): 58.9%
activity at 100 µM (HUVECs; [9]): 54.2%
activity at 100 µM (HUVECs; [10]): 75.6%
minimal effective concentration (HUVECs; 24 hr, read-out: huvec.cyto.24hr POD): 48.8 µM
minimal effective concentration (HUVECs; 24 hr, read-out: huvec.mito.24hr POD): 45.1 µM
minimal effective concentration (HUVECs; 24 hr, read-out: huvec.mitoint.24hr POD): 10.8 µM
minimal effective concentration (HUVECs; 24 hr, read-out: huvec.nma.24hr POD): 2.98 µM
viability at 0.01 µM (HUVECs; [11]): 97.3%
viability at 0.1 µM (HUVECs; [11]): 86.8%
viability at 1 µM (HUVECs; [11]): 97.8%
viability at 10 µM (HUVECs; [11]): 108%
viability at 100 µM (HUVECs; [11]): 59.1%
minimal effective concentration (HUVECs; 24 hrs, read-out: huvec.tc.24hrs POD): 48.8 µM
